Assay results: patent US20250228835A1, “PYRIDINYLOXYPYRIDINES AND RELATED COMPOUNDS AND THEIR USE IN TREATING MEDICAL CONDITIONS” (Rectify Pharmaceuticals, Inc., priority 2024, published 2025)
Read-outs that look alike come from different tables or passages of the source.

Assays:
ABCC6 WT = biological target: T1, ABCC6 WT (Homo sapiens, UniProt O95255); experiment: ABCC6 WT assay: HiBit protein expression; assay type: cell-based; conditions: HEK-293 cells transiently expressing HiBit-tagged ABCC6 WT; 24 h treatment; top concentration 20 μM; read-out: ABCC6 WT EC50, Emax
T1 construct: expressed in transfected cells; host or cells: HEK-293 (transient, Lipofectamine 2000)
Summary of the method: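 HEK-293 cells transiently transfected with HiBit-tagged human ABCC6 WT cDNA, seeded 24 h post-transfection, treated 24 h at 37° C with ten 2-fold doses (top 20 μM final, 0.15% DMSO). HiBit lytic luminescence reports protein expression; Emax and EC50 derived.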

ABCA4 P1380L = biological target: T2, ABCA4 P1380L (Homo sapiens, UniProt P78363, P1380L); experiment: A4 correction dose-response assay: ABCA4 P1380L HiBit protein expression; assay type: cell-based; conditions: HEK-293 cells stably expressing HiBit-tagged ABCA4 P1380L, 24 h treatment, top concentration 30 μM
T2 construct: expressed in transfected cells
Summary of the method: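 Cells transfected with HiBit-tagged human ABCA4 P1380L cDNA were treated for 24 h at 37°C with an eleven-point dilution series (top final 30 μM, 0.3% DMSO).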

[1] = read-out: ABCA4 P1380L EC50, Emax

T1 sequence (O95255 whole entry): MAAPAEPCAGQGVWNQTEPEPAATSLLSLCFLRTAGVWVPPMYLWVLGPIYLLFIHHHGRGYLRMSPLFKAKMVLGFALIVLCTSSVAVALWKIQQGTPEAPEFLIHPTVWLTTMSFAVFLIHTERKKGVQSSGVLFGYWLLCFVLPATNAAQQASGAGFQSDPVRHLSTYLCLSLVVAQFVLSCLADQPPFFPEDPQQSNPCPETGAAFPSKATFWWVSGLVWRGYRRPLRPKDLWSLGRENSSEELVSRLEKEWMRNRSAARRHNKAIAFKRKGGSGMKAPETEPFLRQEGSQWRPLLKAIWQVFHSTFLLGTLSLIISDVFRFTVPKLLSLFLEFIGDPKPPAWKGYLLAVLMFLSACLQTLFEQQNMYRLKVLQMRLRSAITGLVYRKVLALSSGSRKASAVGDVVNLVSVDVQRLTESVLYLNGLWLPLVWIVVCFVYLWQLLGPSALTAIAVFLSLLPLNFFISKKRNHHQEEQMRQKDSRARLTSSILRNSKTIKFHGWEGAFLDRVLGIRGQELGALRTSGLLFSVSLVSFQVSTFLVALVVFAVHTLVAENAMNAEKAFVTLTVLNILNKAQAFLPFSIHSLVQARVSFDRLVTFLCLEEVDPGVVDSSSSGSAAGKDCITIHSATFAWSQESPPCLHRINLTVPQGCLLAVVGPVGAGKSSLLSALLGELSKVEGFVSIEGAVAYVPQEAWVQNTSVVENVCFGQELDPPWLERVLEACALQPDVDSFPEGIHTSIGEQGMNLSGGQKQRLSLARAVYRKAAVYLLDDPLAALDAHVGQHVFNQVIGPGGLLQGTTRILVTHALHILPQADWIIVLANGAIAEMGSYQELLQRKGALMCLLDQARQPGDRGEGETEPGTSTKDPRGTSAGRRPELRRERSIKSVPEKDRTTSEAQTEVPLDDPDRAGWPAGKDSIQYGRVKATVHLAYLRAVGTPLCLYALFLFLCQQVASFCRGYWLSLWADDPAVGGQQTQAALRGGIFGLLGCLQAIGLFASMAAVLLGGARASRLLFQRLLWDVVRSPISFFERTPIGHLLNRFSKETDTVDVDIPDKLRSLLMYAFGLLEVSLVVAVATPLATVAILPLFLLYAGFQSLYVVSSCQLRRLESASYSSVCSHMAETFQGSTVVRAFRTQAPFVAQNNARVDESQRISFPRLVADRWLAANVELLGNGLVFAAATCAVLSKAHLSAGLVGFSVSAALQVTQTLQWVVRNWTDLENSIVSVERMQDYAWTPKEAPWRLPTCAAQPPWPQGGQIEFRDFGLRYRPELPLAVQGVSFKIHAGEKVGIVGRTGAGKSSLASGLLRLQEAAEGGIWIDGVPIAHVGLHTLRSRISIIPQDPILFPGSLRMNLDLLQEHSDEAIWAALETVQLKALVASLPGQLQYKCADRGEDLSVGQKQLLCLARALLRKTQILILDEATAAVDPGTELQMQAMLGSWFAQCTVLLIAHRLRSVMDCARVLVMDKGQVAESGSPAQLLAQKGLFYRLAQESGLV
T2 sequence (P78363 whole entry P1380L): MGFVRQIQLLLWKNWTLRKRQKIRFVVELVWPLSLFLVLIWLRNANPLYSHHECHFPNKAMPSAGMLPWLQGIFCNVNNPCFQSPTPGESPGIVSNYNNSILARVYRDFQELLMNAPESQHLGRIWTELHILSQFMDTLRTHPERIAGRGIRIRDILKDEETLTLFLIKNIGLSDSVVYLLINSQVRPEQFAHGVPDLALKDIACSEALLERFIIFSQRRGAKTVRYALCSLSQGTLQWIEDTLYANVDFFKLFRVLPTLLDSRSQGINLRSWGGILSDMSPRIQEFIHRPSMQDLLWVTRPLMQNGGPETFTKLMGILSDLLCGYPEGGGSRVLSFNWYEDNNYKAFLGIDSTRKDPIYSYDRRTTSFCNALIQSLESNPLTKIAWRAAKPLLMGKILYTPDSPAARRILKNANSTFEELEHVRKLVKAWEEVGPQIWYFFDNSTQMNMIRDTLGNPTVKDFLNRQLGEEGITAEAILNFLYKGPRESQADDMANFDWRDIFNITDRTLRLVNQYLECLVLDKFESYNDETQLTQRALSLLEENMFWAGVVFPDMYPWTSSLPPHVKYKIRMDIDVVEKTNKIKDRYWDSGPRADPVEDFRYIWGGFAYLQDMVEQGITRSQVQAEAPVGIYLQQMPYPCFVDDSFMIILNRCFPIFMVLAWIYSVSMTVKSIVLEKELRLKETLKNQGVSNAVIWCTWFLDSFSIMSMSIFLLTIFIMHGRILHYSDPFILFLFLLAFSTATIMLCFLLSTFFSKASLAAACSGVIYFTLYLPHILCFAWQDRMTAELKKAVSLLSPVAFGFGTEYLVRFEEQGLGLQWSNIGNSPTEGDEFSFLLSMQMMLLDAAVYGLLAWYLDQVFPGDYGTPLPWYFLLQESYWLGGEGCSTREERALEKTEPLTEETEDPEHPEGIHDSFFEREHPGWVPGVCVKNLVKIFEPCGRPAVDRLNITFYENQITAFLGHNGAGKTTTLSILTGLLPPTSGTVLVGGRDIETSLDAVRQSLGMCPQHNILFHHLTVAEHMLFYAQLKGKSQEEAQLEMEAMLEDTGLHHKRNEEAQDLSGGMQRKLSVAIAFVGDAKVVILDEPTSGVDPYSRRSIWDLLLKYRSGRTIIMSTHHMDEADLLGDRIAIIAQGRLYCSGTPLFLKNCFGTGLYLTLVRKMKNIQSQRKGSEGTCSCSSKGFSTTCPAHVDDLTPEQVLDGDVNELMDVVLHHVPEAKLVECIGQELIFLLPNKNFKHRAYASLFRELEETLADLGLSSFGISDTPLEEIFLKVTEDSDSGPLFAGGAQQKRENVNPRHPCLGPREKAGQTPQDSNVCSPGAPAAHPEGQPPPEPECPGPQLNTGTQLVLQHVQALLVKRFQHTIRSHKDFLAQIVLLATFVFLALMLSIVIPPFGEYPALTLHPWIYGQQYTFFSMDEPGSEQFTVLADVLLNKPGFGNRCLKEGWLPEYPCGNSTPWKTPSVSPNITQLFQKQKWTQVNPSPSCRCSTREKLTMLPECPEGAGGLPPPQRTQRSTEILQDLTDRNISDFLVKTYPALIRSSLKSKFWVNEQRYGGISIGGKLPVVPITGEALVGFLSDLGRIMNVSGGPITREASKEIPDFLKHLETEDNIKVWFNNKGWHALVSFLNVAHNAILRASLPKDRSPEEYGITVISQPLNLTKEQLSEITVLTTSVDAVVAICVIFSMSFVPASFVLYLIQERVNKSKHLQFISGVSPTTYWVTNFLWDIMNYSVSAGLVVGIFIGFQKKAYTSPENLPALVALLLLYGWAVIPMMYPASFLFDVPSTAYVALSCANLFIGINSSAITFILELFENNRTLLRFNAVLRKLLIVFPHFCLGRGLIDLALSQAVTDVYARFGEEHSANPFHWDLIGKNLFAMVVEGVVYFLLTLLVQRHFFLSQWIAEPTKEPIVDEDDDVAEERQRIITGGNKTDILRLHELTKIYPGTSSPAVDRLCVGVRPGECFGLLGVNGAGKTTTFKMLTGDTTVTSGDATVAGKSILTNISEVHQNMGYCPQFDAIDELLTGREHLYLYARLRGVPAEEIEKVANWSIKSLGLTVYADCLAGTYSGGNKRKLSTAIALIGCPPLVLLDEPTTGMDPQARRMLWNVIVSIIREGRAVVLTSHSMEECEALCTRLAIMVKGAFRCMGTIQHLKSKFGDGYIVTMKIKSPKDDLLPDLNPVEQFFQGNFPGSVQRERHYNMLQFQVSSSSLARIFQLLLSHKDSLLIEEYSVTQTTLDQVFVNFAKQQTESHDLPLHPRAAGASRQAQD

EC50 (ABCC6 WT) | EC50 (ABCA4 P1380L; [1]) | EC50 (ABCA4 P1380L; ABCA4 P1380L EC50, Emax) | SMILES
1 to 10 µM | 1 to 10 µM |  | Cc1cc(C2CC2)nc(C2CC2)c1Oc1nc(-c2cncc(C#N)c2)ccc1S(=O)(=O)NC1CCOCC1 [Compound I-322]
1 to 10 µM | 1 to 10 µM |  | Cc1cc(C)c(Oc2nc(-n3cnc(C#N)c3)ccc2N(C)S(C)(=O)=O)c(C)c1 [Compound I-272]
1 to 10 µM | > 25 µM |  | Cc1cc(C)c(Oc2nc(-c3cc(Cl)cnc3C)ccc2NS(C)(=O)=O)c(C)n1 [Compound I-282]
1 to 10 µM | > 25 µM |  | Cc1cc(C)c(Oc2nc(N3CCN(C(=O)C4CC4)CC3)ccc2S(N)(=O)=O)c(C)c1 [Compound I-285]
1 to 10 µM | > 25 µM |  | Cc1cc(C)c(Oc2nc(N3CCC4(CN(C(=O)C5CC5)C4)C3)ccc2NS(C)(=O)=O)c(C)c1 [Compound I-25]
10 to 25 µM |  | 1 to 10 µM | Cc1cc(C)c(Oc2nc(-c3cncc(C#N)c3)ccc2S(N)(=O)=O)c(C)n1 [Compound I-258]
< 1 µM | < 1 µM |  | Cc1cc(C2CC2)nc(C)c1Oc1nc(-n2cnc(C#N)c2)ccc1NS(C)(=O)=O [Compound I-254]
< 1 µM | < 1 µM |  | Cc1cc(C)c(Oc2nc(-c3ccnc(C#N)c3)ccc2NS(C)(=O)=O)c(C)n1 [Compound I-239]
1 to 10 µM | 10 to 25 µM |  | Cc1cc(C)c(Oc2nc(N3CCC(C#N)CC3)ccc2NS(C)(=O)=O)c(C)c1 [Compound I-244]
< 1 µM | 1 to 10 µM |  | Cc1cc(C)c(Oc2nc(-c3cncc(Cl)c3)ccc2NS(=O)(=O)C2CC2)c(C)n1 [Compound I-238]
< 1 µM | < 1 µM |  | Cc1cc(C)c(Oc2nc(-c3cn(C)nc3C)ccc2NS(C)(=O)=O)c(C)c1 [Compound I-283]
< 1 µM | > 25 µM |  | Cc1cc(C)c(Oc2nc(-c3cncc(Cl)c3)ccc2NS(=O)(=O)C(C)C)c(C)c1 [Compound I-29]
< 1 µM | < 1 µM |  | Cc1cc(C)c(Oc2nc(-c3cnc(C#N)c(Cl)c3)ccc2NS(C)(=O)=O)c(C)c1 [Compound I-36]
10 to 25 µM | > 25 µM |  | Cc1cc(C2CC2)nc(C)c1Oc1nc(-c2cncc(C#N)c2)ccc1S(C)(=N)=O (stereo not shown) [Compound I-251]
< 1 µM | < 1 µM |  | Cc1cc(C)c(Oc2nc(-c3cncc(C#N)c3)ccc2NS(=O)(=O)C2CC2)c(C)n1 [Compound I-266]
< 1 µM | < 1 µM |  | Cc1cc(C)c(Oc2nc(-c3cncc(Cl)c3)ccc2NS(C)(=O)=O)c(C2CC2)n1 [Compound I-40]
1 to 10 µM | < 1 µM |  | Cc1cc(C2CC2)nc(C)c1Oc1nc(-c2cncc(C#N)c2)ccc1NS(=O)(=O)C1CCC1 [Compound I-252]
< 1 µM | > 25 µM |  | Cc1cc(C2CC2)nc(C)c1Oc1nc(-n2cc(C#N)cn2)ccc1NS(C)(=O)=O [Compound I-256]
< 1 µM | < 25 µM |  | Cc1cc(C)c(Oc2nc(-c3cncc(C#N)c3)ncc2NS(C)(=O)=O)c(C)n1 [Compound I-284]
1 to 10 µM | > 25 µM |  | Cc1cc(C)c(Oc2nc(-c3cncc(Cl)c3)cnc2NS(C)(=O)=O)c(C)n1 [Compound I-260]

EC50 (ABCC6 WT) | EC50 (ABCA4 P1380L; [1]) | EC50 (ABCA4 P1380L; ABCA4 P1380L EC50, Emax) | SMILES
< 1 µM | < 1 µM |  | Cc1cc(C)c(Oc2nc(-c3cncc(C#N)c3)ccc2S(N)(=O)=O)c(C)c1 [Compound I-280]
< 1 µM | < 1 µM |  | Cc1cc(C)c(Oc2nc(-c3cncc(C#N)c3)ccc2S(C)(=N)=O)c(C)c1 (stereo not shown) [Compound I-279]
< 1 µM | < 1 µM |  | Cc1cc(C)c(Oc2nc(-c3cncc(Cl)c3)ncc2NS(C)(=O)=O)c(C)n1 [Compound I-246]
< 1 µM | < 25 µM |  | Cc1cc(C)c(Oc2nc(-c3cncc(C#N)c3)ccc2NS(=O)(=O)C2COC2)c(C)c1 [Compound I-267]
< 1 µM | < 25 µM |  | Cc1cc(C)c(Oc2nc(-n3cnc(C#N)c3)ccc2NS(C)(=O)=O)c(C)c1 [Compound I-273]
1 to 10 µM | 1 to 10 µM |  | CNS(=O)(=O)c1ccc(-c2cncc(C#N)c2)nc1Oc1c(C)cc(C)nc1C [Compound I-265]
10 to 25 µM | 10 to 25 µM |  | Cc1cc(C)c(Oc2nc(N3CCN(C(=O)C4COC4)CC3)ccc2NS(C)(=O)=O)c(C)c1 [Compound I-23]
≥ 25 µM | > 25 µM |  | Cc1cc(C)c(Oc2nc(N3CCN(S(C)(=O)=O)CC3)ccc2NS(C)(=O)=O)c(C)c1 [Compound I-26]
1 to 10 µM | < 25 µM |  | Cc1cc(C)c(Oc2nc(-c3cncc(C#N)c3)ccc2NS(=O)(=O)C2CCC2)c(C)c1 [Compound I-253]
1 to 10 µM | < 25 µM |  | Cc1cc(C(F)F)nc(C2CC2)c1Oc1nc(-c2cncc(C#N)c2)ccc1S(=O)(=O)NC1COC1 [Compound I-321]
1 to 10 µM | 1 to 10 µM |  | Cc1cc(C)c(Oc2nc(N3CCN(C(=O)OC(C)C)CC3)ccc2NS(C)(=O)=O)c(C)c1 [Compound I-32]
< 1 µM | > 25 µM |  | Cc1cc(C(F)F)cc(C2CC2)c1Oc1nc(-c2cncc(C#N)c2)ccc1S(=N)(=O)C1CC1 (stereo not shown) [Compound I-319]
1 to 10 µM | 1 to 10 µM |  | Cc1cc(C)c(Oc2nc(N3CCC(C#N)C3)ccc2NS(C)(=O)=O)c(C)c1 (single isomer, unassigned) [Compound I-262]
≥ 25 µM | < 1 µM |  | Cc1cc(C2CC2)nc(C)c1Oc1nc(-c2cncc(C#N)c2)ccc1NS(=O)(=O)C1CC1 [Compound I-264]
< 1 µM | > 25 µM |  | Cc1cc(C2CC2)nc(C2CC2)c1Oc1nc(-c2cncc(C#N)c2)ccc1S(=N)(=O)C1CC1 (stereo not shown) [Compound I-317]
≥ 25 µM | > 25 µM |  | Cc1cnc(Oc2nc(-c3cncc(C#N)c3)ccc2NS(C)(=O)=O)c(C)c1 [Compound I-250]
1 to 10 µM | < 25 µM |  | Cc1cc(C)c(Oc2nc(-n3ccc(C#N)n3)ccc2NS(C)(=O)=O)c(C)c1 [Compound I-257]
< 1 µM | < 1 µM |  | CCS(=O)(=O)Nc1ccc(-c2cncc(C#N)c2)nc1Oc1c(C)cc(C)nc1C [Compound I-247]
1 to 10 µM | 10 to 25 µM |  | Cc1cc(C)c(Oc2nc(N3CCC(C#N)C3)ccc2NS(C)(=O)=O)c(C)c1 (single isomer, unassigned) [Compound I-261]
< 1 µM | 1 to 10 µM |  | Cc1cc(C)c(Oc2nc(N3CCN(C(=O)C4CCC4)CC3)ccc2NS(C)(=O)=O)c(C)c1 [Compound I-24]

EC50 (ABCC6 WT) | EC50 (ABCA4 P1380L; [1]) | EC50 (ABCA4 P1380L; ABCA4 P1380L EC50, Emax) | SMILES
1 to 10 µM | > 25 µM |  | Cc1cc(C)c(Oc2nc(N3CCN(C(=O)N(C)C)CC3)ccc2NS(C)(=O)=O)c(C)c1 [Compound I-33]
1 to 10 µM | 1 to 10 µM |  | Cc1cc(C)c(Oc2nc(-c3cncc(S(C)(=O)=O)c3)ccc2NS(C)(=O)=O)c(C)c1 [Compound I-278]
10 to 25 µM | > 25 µM |  | Cc1cc(C)c(Oc2nc(-c3cccc(C#N)n3)ccc2NS(C)(=O)=O)c(C)n1 [Compound I-241]
≥ 25 µM | > 25 µM |  | Cc1cc(C)c(Oc2nc(-c3cncc(C#N)c3)ccc2S(C)(=N)=O)c(C)n1 (stereo not shown) [Compound I-249]
1 to 10 µM | 10 to 25 µM |  | Cc1cc(C)c(Oc2nc(N3CCN(C(=O)C(C)(C)C)CC3)ccc2NS(C)(=O)=O)c(C)c1 [Compound I-34]
1 to 10 µM | > 25 µM |  | Cc1cc(C2CC2)nc(C)c1Oc1nc(-n2ccc(C#N)n2)ccc1NS(C)(=O)=O [Compound I-255]
< 1 µM | 1 to 10 µM |  | Cc1cc(C)c(Oc2nc(-c3cncc(C#N)c3)ccc2S(=N)(=O)C2CC2)c(C)c1 (stereo not shown) [Compound I-245]
< 1 µM | < 1 µM |  | Cc1cc(C)c(Oc2nc(-c3cncc(C#N)c3)ccc2NS(=O)(=O)C(C)C)c(C)n1 [Compound I-276]
1 to 10 µM | < 1 µM |  | Cc1cc(C)c(Oc2nc(-c3cc(C#N)c[nH]c3=O)ccc2NS(C)(=O)=O)c(C)n1 [Compound I-326]
10 to 25 µM | 1 to 10 µM |  | CNC(=O)N1CCN(c2ccc(NS(C)(=O)=O)c(Oc3c(C)cc(C)cc3C)n2)CC1 [Compound I-27]
1 to 10 µM | 1 to 10 µM |  | Cc1cc(C)c(Oc2nc(-c3cncc(C#N)c3)ccc2S(=N)(=O)C2CC2)c(C)n1 (stereo not shown) [Compound I-248]
< 1 µM | < 25 µM |  | Cc1cc(C)c(Oc2nc(-c3cncc(Cl)c3)cnc2NS(C)(=O)=O)c(C)c1 [Compound I-277]
1 to 10 µM | 1 to 10 µM |  | Cc1cc(C)c(Oc2nc(-c3ccc(C#N)nc3C)ccc2NS(C)(=O)=O)c(C)n1 [Compound I-269]
< 1 µM | < 1 µM |  | CNS(=O)(=O)c1ccc(-c2cncc(C#N)c2)nc1Oc1c(C)cc(C)cc1C [Compound I-281]
1 to 10 µM | < 25 µM |  | Cc1cc(C)c(Oc2nc(-c3cncc(C#N)c3)cnc2NS(C)(=O)=O)c(C)n1 [Compound I-259]
1 to 10 µM | > 25 µM |  | Cc1cc(C)c(Oc2nc(N3CCn4c(C)nnc4C3)ccc2NS(C)(=O)=O)c(C)c1 [Compound I-21]
1 to 10 µM | > 25 µM |  | Cc1cc(C)c(Oc2nc(N3CC4(CCN(C(=O)C5CC5)C4)C3)ccc2NS(C)(=O)=O)c(C)c1 [Compound I-31]
< 1 µM | < 1 µM |  | Cc1cc(C2CC2)cc(C)c1Oc1nc(-c2cncc(C#N)c2)ccc1NS(C)(=O)=O [Compound I-271]
< 1 µM | < 25 µM |  | Cc1cc(C(F)(F)F)nc(C)c1Oc1nc(-c2cncc(C#N)c2)ccc1NS(C)(=O)=O [Compound I-240]
